In patent publication US9999611B2, “SIRT 1 activator including syringaresinol” (AMOREPACIFIC CORPORATION, priority 2011, dated 2018):

Tests used:
Human myocytes = assay: Fatty acid oxidation promoting ability (3H2O in medium), myocytes; format: cell-based; details: 50 μM, vs non-treated group, FIG. 11
Protocol: Human adipocytes, hepatocytes and myocytes were treated with 50 μM syringaresinol in substantially the same manner as in Test Example 3. The cells were washed with PBS and cultured for a day in a medium for fatty acid oxidation analysis. The medium was recovered and the amount of ^3H2O was measured.

[1] = tested on: IL-1b, IL-6. iNOS, COX2, MMP9 and CCR2; assay: Inhibition of expression of inflammation-related genes in LPS-treated human PBMCs; format: cell-based; details: human PBMCs pretreated with 50 μM, then 10 ng/mL LPS; compared to cells treated only with LPS; FIG. 19
Protocol: After pretreating human PBMCs with 50 μM syringaresinol, inflammatory response was induced by treating with 10 ng/mL LPS, in substantially the same manner as in Test Example 11. The cells treated with each sample were washed with PBS and RNA and cDNA were extracted and synthesized therefrom. Then, the expression pattern of the inflammatory response-related genes IL-1b, IL-6. iNOS, COX2, MMP9 and CCR2 was monitored using the synthesized cDNA and predesigned primers.

[2] = tested on: PGC-1α and PGC-1β, IL-10 and arginase I; assay: Change in human PBMC type: expression of type 2 immune cell-related genes; format: cell-based; details: human PBMCs, 20, 50 or 100 μM, vs DMSO; FIG. 21
Protocol: After treating human PBMCs with 20, 50 or 100 μM syringaresinol or DMSO in substantially the same manner as in Test Example 11, RNA was extracted from the PBMCs and cDNA was synthesized therefrom in order to measure the expression of type 2 immune cell-related genes. The expression pattern of the transcriptional regulators necessary for inducement of differentiation to type 2 immune cells, such as PGC-1α and PGC-1β, and the genes mainly expressed in type 2 immune cells, such as IL-10 and arginase I, was measured using the synthesized cDNA.

[3] = tested on: aged retinal cells (ARPE-19); assay: Mitochondrial function recovering effect in aged retinal cells: reactive oxygen species production (H2DCFDA, flow cytometer); format: cell-based, human; details: compared to cells treated only with DMSO, FIG. 16
Protocol: The aging of retinal cells was induced while treating with 50 or 100 μM syringaresinol or with DMSO as a negative control, in substantially the same manner as in Test Example 7. For evaluation of mitochondrial function recovering effect, the level of energy (ATP) and reactive oxygen species production in retinal cells was investigated. The energy production was determined by recovering the aged cells after washing with PBS and then with hot water and measuring luminescence using the ATP determination kit (Molecular Probes, Eugene, Oreg., USA) and the Tecan system (Infinite M200, Tecan, Austria). The reactive oxygen species production was measured using a flow cytometer (BD Biosciences, San Jose, Calif., USA) after washing the aged cells with PBS and staining them with the reactive oxygen species detection reagent (H2DCFDA, Invitrogen, Carlsbad, Calif., USA).

PGC-1β = PGC-1β mRNA expression promoting effect (qRT-PCR); format: cell-based, human; details: 50 μM, vs DMSO control, FIG. 13
Protocol: (§1) Human adipocytes, hepatocytes and myocytes were treated with 50 μM syringaresinol in substantially the same manner as in Test Example 3 and washed with PBS. Then, RNA and cDNA were sequentially extracted therefrom. The mRNA expression of the energy metabolism-related genes PGC-1α and PGC-1β was analyzed by qRT-PCR. A result of comparing the expression of PGC-1α and PGC-1β with a control group treated only with DMSO is shown in FIG. 12 and FIG. 13, respectively.

SIRT1 = SIRT1 expression recovering effect in gingival fibroblasts treated with cigarette smoke condensate (PCR); format: cell-based, human; details: cigarette smoke condensate 100 μg/mL, syringaresinol 50 or 100 μg/mL, 2 days, FIG. 2
Protocol: Experiment was conducted to evaluate whether syringaresinol can recover SIRT1 expression that has been decreased due to smoking in gingival fibroblasts.
Gingival fibroblasts were obtained from tissue biopsies of patients having healthy gingiva. The tissue biopsy was put in a 15-mL test tube holding Dulbecco's modified Eagle's medium (DMEM, Gibco Co., USA) and blood and impurities were removed by washing 3 times. Then, the tissue biopsy was transferred onto a 100-mm tissue culture dish holding DMEM containing 10% fetal bovine serum (Gibco Co., USA) and 1% antibiotics (penicillin G 10,000 units/mL, amphotericin B 25 μg/mL, Gibco Co., USA) and finely cut to 1 mm^2 using a No. 15 blade. Then, 5-6 pieces were uniformly distributed on a 60-mm culture dish. After incubation for about 30 minutes in a 5% CO2 incubator at 37° C. and 100% humidity such that the tissue was uniformly attached on the bottom of the culture dish, 3 mL of DMEM containing 10% fetal bovine serum and 1% antibiotics was added. The culture medium was exchanged with 2-3 day intervals until a single layer of cells was formed. […]
The gingival fibroblasts subcultured 5-6 times were seeded onto a 24-well plate, with 1×10^4 cells per well. […] The expression pattern of the SIRT1 and GAPDH genes was monitored using the synthesized cDNA and predesigned primers and probes (Applied Biosystems; SIRT1, Hs01009006_m1; GAPDH, Hs99999905_m1). […]

PGC-1α = PGC-1α mRNA expression promoting effect (qRT-PCR); format: cell-based, human; details: 50 μM, vs DMSO control, FIG. 12
Protocol: as §1

## COc1cc(C2OCC3C(c4cc(OC)c(O)c(OC)c4)OCC23)cc(OC)c1O (stereo not drawn) [syringaresinol]
Human myocytes
  fatty acid oxidation: increased fatty acid oxidation
[1]
  decreased expression of the inflammatory response-related genes: about 90%
[2]
  expression of type 2 immune cell-specific marker genes: significantly increased expression
[3]; 50 μM
  decreased reactive oxygen species production: about 7%
[3]; 100 μM
  decreased reactive oxygen species production: ~11%
PGC-1β; human adipocytes
  expression of PGC-1β: increased the expression
PGC-1β; human hepatocytes
  expression of PGC-1β: increased the expression
PGC-1β; human myocytes
  expression of PGC-1β: increased the expression
SIRT1
  SIRT1 expression: increased SIRT1 expression in gingival fibroblasts, which had been decreased due to smoking, in a concentration-dependent manner
PGC-1α; human adipocytes
  expression of PGC-1α: increased the expression
PGC-1α; human hepatocytes
  expression of PGC-1α: increased the expression
PGC-1α; human myocytes
  expression of PGC-1α: increased the expression
